Results published in patent US20160290995A1, “METHODS OF SELECTING AKT AGONISTS OR ANTAGONISTS” (OREGON HEALTH & SCIENCE UNIVERSITY, priority 2015, published 2016).

Experiments:
Akt phosphorylation [1] = assay: Immunoblotting of Akt and PRAS40 phosphorylation in 10T1/2 whole cell lysates; assay type: cell-based, mouse
Description: (§1) Cells were imaged every 2-min for 60 min. At the end of the incubation period whole cell lysates were collected.
(§2) Whole cell protein lysates were prepared as described (Mukherjee A and Rotwein P, Mol Endorcrinol 22, 1238-1250 (2008); incorporated by reference herein). Protein aliquots (15 μg/lane) were resolved by SDS-PAGE (12% separating gel), followed by transfer to Immobilon-FL membranes, and blocking with 50% AquaBlock solution. Membranes were incubated sequentially with primary and secondary antibodies, as described (Mukherjee and Rotwein, 2008 supra). Primary antibodies were incubated for 12-16 hr at a 1:1000 dilution, except for α-tubulin (1:10,000), and secondary antibodies for 90 min at 1:5000. Images were captured using the LiCoR Odyssey and version 3.0 analysis software (Lincoln, Nebr.).
C3H10T1/2 cells stably expressing FoxO1-clover were incubated in SFM with Fluorobrite imaging media for 90 min followed by addition of insulin [1400 pM], EGF [4.2 nM], PDGF-AA [1400 pM], or PDGF BB [104 pM]. Whole protein lysates were collected after 0, 5, 15, 30, 60, and 90 min of growth factor exposure by washing cells twice with cold PBS and addition of RIPA buffer containing protease and phosphatase inhibitors (Mukherjee A and Rotwein P, Mol Endocrinol 22, 1238-1250 (2008); incorporated by reference herein). Protein aliquots (12.5 μg/lane) were resolved by SDS PAGE (10% separating gels), and transferred onto Immobilon-FL membranes. Membranes were incubated in 50% AquaBlock for 60 min, followed by addition of primary antibodies at 1:1000 dilution for 16 hr, and secondary antibodies for 90 min at 1:5000. Images were collected using the LiCoR Odyssey and analysis software version 3.0 (Lincoln, Nebr.).

Akt [2] = assay: FOXO1-clover reporter live-cell imaging in C2 myoblasts; assay type: cell-based, mouse; settings: different concentrations of R3-IGF-I, 60 min
Description: C3H10T1/2 mouse embryonic fibroblasts (ATCC #CCL226) were incubated in DMEM supplemented with 10% FBS. Mouse C2 myoblasts (Yaffe and Saxel, 1977) were grown in DMEM supplemented with 10% FBS and 10% newborn calf serum. Cells were transduced at 50% of confluent density with concentrated virus in the presence of 6 μg/ml polybrene, as described (Mukherjee A et al, Mol Cell Biol 30, 1018-1027 (2010); incorporated by reference herein). Cells were then selected by incubation with puromycin (2 μg/ml) for one week. Surviving cells were sorted by fluorescence intensity using a Becton-Dickinson Influx cell sorter at the OHSU Flow Cytometry Core Facility. Reporter expression was stable for at least 10 passages in each sorted cell population.
10T1/2 cells and C2 myoblasts were incubated in serum-free medium for 90 min. R3-IGF-I was added in supplemented FluoroBrite [0 to 500 pM], and cells were imaged every 2-min for 60 min.

Akt phosphorylation [3] = assay: Immunoblotting of Akt phosphorylation in C2 myoblast whole cell lysates; assay type: cell-based, mouse; settings: different concentrations of IGF-I, C2 myoblasts
Description: as §2

Akt [4] = assay: FoxO1-clover reporter live-cell imaging in HeLa cells; assay type: cell-based; settings: IGF-I 500 pM, insulin 1400 pM, EGF 4.2 nM, PDGF-BB 4.1 nM, PDGF-AA 3.5 nM; 90 min
Description: HeLa cells (ATCC #CCL2) were incubated in DMEM supplemented with 10% FBS. Cells were transduced at 50% of confluent density with concentrated FoxO1-clover virus in the presence of polybrene (6 μg/ml), as described (Gross S M and Rotwein P, Skelet Muscle 3, doi10.1186/2044-5040-3-10 (2013); incorporated by reference herein), and sorted by fluorescence intensity with a Becton-Dickinson Influx cell sorter. Reporter expression was stable for at least 10 passages in each sorted cell population. C3H10T1/2 mouse embryonic fibroblasts (ATC #CCL226) stably expressing FoxO1-clover (Gross and Rotwein, 2015), were maintained under selection with puromycin (2 μg/ml).
(§3) Live cell imaging was performed using an EVOS FL Auto microscope with a stage top incubator that was maintained at 37° C. and 95% humidified air with 5% CO2. Images were collected at 100× magnification at different intervals, using a 10× Fluorite objective (numerical aperture: 0.3), and a GFP light cube (excitation peak, 472/22 nm; emission peak, 510/42 nm). Images were analyzed with the NIH ImageJ plug-in Fiji (NIH, Bethesda, Md.), after using the Polynomial Fit plug-in to subtract background fluorescence, the Stack Reg (rigid registration) plug-in to register images, and the Gaussian Blur plug-in (at 2-pixels) to average fluorescence across pixels. Individual cells were manually tracked using the mTrackJ plug-in (Meijering E et al, Methods Enzymol 504, 183-200 (2012); incorporated by reference herein) by selecting a single point in the nucleus. Cells that died, divided, or migrated out of frame were excluded from analysis. In experiments performed in 6-well dishes, two locations on opposite sides of the well were imaged, while for studies using 24-well plates, one central location was imaged. In each location, at least 25 cells were tracked. The relative nuclear intensity of the FoxO1-clover reporter protein was calculated in each cell by normalizing the values measured at time 0 to 100%. This corresponded to incubation in serum-free medium (SFM). In graphs in which single cell responses were plotted with C3H10T1/2 cells, we applied a time-weighted smoothing filter to each data point. This consisted of averaging contributions from the two prior and two succeeding times (adding 50% of the prior or succeeding time point, and 25% of the next succeeding or earlier time point to 100% of the value of the time point in question, and then dividing by 2.5).
Short-term responses to individual growth factors: C3H10T1/2 cells were incubated in serum-free Fluorobrite medium plus 2 mM L-glutamine and 0.1% bovine serum albumin for 90 min. Different concentrations of growth factors were added and images were collected every 2 min for 90 min. Growth factors included insulin [0 to 1400 pM], EGF [0 to 4.2 nM], PDGF-AA [0 to 1400 pM], or PDGF-BB [0 to 104 pM]. HeLa cells were incubated in serum-free Fluorobrite medium for 120 min and then incubated with insulin [1400 pM], EGF [4.2 nM], PDGF-AA [3.5 nM], PDGF-BB [4.1 nM], or R3-486 IGF-I [500 pM], with images collected every 2 min.

Akt [5] = assay: FOXO1-clover reporter live-cell imaging (relative nuclear intensity) in C3H10T1/2 fibroblasts; assay type: cell-based, mouse; settings: for change of nuclear levels of the reporter on growth factor addition (result in words): different concentrations; for change of nuclear levels of the reporter on growth factor addition (result in words) / time to half-maximal translocation/accumulation of reporter in the cytoplasm after onset of incubation / time to maximal translocation values: cells pre-incubated in SFM, population level; for time to half-maximal translocation/accumulation of reporter in the cytoplasm after onset of incubation / time to maximal translocation values: different growth factor concentrations
Description: as §1
10T1/2 cells and C2 myoblasts were incubated in serum-free medium for 90 min. R3-IGF-I was added in supplemented FluoroBrite [0 to 500 pM], and cells were imaged every 2-min for 60 min. […]
as §3, with “tracked.” for “tracked. The relative nuclear intensity of the FoxO1-clover reporter protein was calculated in each cell by normalizing the values measured at time 0 to 100%. This corresponded to incubation in serum-free medium (SFM). In graphs in which single cell responses were plotted with C3H10T1/2 cells, we applied a time-weighted smoothing filter to each data point. This consisted of averaging contributions from the two prior and two succeeding times (adding 50% of the prior or succeeding time point, and 25% of the next succeeding or earlier time point to 100% of the value of the time point in question, and then dividing by 2.5).”

IGF-I receptor = IGF-I receptor (Homo sapiens, UniProt P08069); settings: cited from earlier work
Sequence of IGF-I receptor (P08069 31-736 limits assumed, species assumed): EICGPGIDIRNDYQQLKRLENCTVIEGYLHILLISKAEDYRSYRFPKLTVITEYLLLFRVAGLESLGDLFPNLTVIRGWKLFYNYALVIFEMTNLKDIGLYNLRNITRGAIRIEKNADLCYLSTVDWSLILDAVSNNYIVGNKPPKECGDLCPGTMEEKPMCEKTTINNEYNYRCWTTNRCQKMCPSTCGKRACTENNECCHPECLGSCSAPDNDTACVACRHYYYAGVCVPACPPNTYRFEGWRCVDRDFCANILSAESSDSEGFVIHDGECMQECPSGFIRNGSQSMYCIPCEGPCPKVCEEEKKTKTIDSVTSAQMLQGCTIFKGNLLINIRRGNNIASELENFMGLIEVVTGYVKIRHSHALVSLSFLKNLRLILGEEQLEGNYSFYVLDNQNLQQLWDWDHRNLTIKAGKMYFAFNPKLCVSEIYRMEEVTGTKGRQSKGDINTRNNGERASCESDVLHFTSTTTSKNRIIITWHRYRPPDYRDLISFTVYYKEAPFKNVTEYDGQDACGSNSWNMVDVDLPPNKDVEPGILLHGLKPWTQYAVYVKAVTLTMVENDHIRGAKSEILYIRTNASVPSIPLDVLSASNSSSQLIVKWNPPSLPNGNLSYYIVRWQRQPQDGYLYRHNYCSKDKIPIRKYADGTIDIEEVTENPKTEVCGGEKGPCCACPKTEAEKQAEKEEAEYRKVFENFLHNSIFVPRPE
Sequence of IGF-I receptor (P08069 741-1367 partner limits assumed, species assumed): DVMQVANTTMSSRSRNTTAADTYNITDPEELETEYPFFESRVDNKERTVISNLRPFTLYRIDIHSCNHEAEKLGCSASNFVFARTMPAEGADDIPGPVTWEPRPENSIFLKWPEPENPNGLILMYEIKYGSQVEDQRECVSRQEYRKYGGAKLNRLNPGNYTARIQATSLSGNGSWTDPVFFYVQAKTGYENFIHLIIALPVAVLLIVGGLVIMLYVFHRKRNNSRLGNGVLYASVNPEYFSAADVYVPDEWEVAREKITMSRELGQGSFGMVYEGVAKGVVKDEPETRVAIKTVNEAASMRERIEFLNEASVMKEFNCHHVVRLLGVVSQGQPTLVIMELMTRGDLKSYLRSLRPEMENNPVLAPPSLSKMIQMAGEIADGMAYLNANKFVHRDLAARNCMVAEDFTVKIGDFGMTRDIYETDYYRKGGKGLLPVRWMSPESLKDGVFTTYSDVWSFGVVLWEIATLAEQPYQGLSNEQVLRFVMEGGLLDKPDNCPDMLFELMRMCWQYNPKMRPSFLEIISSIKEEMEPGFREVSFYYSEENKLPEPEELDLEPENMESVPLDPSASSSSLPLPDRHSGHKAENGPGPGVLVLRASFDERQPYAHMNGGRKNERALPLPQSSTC

Question: What does the source list for “R3-IGF-I: growth factor purchased from GroPep; binds minimally to IGF binding proteins; activates Akt”?
Answer: Akt phosphorylation (pAkt T308 immunoblot) (Akt phosphorylation [1]; 60 min, 10% FBS, PDGF-BB 206 pM, R3-IGF-I 1 nM, BMP-2 15 nM): stimulation of Akt phosphorylation; extent of Akt phosphorylation (immunoblot) (Akt phosphorylation [1]; different concentrations of IGF-I, 10T1/2 cells): dose-dependent increase in the extent of Akt phosphorylation; reporter response in C2 myoblasts compared with 10T1/2 cells (Akt [2]): marked increase in sensitivity to IGF-I; extent of Akt phosphorylation (immunoblot) (Akt phosphorylation [3]): dose-dependent increase in the extent of Akt phosphorylation; signaling response in HeLa FoxO1-clover cells (result in words) (Akt [4]): sustained signaling effects; response to IGF-I after prior EGF (Akt [5]; EGF 4.2 nM for 60 min, then IGF-I 500 pM): rapid, extensive, and sustained signaling response; change of nuclear levels of the reporter on growth factor addition (result in words) (Akt [5]): rapid and dose-dependent reduction in nuclear levels of the reporter; time to half-maximal translocation/accumulation of reporter in the cytoplasm after onset of incubation (Akt [5]): 8 to 10 min; time to maximal translocation values (Akt [5]): 14 to 16 min; response to a second treatment with the same growth factor (Akt [5]; sequential exposures, IGF-I 50 or 500 pM with 90-min washout, EGF 4.2 nM after 60 min EGF): qualitatively similar population responses to each dose; subcellular localization of FOXO1-clover (result in words) (Akt [5]; serum-starved cells, 60 min, 10% FBS, PDGF-BB 206 pM, R3-IGF-I 1 nM, BMP-2 15 nM): rapid and sustained translocation of the reporter from the nucleus to the cytoplasm

Question: For “insulin: recombinant human insulin (Tocris Bioscience)”, which “time at which phosphorylation of Akt and PRAS40 was detected” value (Akt phosphorylation [1]; insulin 1400 pM) is on record?
Answer: The value was at most 5 min.

Question: And the “time course of Akt and PRAS40 phosphorylation (result in words)” value (Akt phosphorylation [1]; insulin 1400 pM, EGF 4.2 nM, PDGF-AA 1400 pM, PDGF-BB 104 pM, up to 90 min)?
Answer: The value was “rapid and sustained”.

Question: And the “affinity for IGF-I receptor relative to insulin receptor (fold less)” value (IGF-I receptor)?
Answer: The value was about 1000 fold.

Question: What about the “signaling response in HeLa FoxO1-clover cells (result in words)” value (Akt [4]) of the same substance?
Answer: Its value is “sustained signaling effects”.

Question: What about the “change of nuclear levels of the reporter on growth factor addition (result in words)” value (Akt [5]) of the same substance?
Answer: The value was “rapid, dose-dependent, and sustained decrease in nuclear levels of FoxO1-clover”.

Question: And the “time to half-maximal translocation/accumulation of reporter in the cytoplasm after onset of incubation” value (Akt [5])?
Answer: Its value is 8 to 15 min.

Question: What about the “time to maximal translocation values” (Akt [5]) of the same substance?
Answer: Its value is about 20 min.
